In publication PMC7399811, “Analogues of a Cyclic Antimicrobial Peptide with a Flexible Linker Show Promising Activity against Pseudomonas aeruginosa and Staphylococcus aureus” (Antibiotics, 2020):
Values after ≈ are worked out from the molar mass of the structure shown. Square brackets hold non-standard residues; d marks the D form. Peptide text beside a SMILES is read from it. Bip = N[C@@H](Cc1ccc(-c2ccccc2)cc1)C(=O)O; 2Nal = N[C@@H](Cc1ccc2ccccc2c1)C(=O)O; Dab = NCC[C@H](N)C(=O)O; AEEA = NCCOCCOCC(=O)O

Experiments:
[1] = tested on: A. baumannii ATCC 19606; type: cell-based; conditions: for Minimum inhibitory concentration AB: ATCC 19606
Procedure: (§1) Bacterial strains (E. coli ATCC 29522, S. aureus ATCC 29213, A. baumannii ATCC 19606, and P. aeruginosa ATCC 27853) were grown overnight on LB agar plates at 37 °C. Overnight cultures were prepared by inoculation of two to three colonies in 10 mL non-cation adjusted Mueller–Hinton broth (MHB) media (BD BBLTM Beef extract powder, BD BactoTMCasamino acids, and DIFCO soluble starch). Bacterial inoculum for MIC testing was prepared as balanced cultures, as previously described. The bacterial suspension was adjusted using MHB to an OD600 of 0.1, approximately 1·10^8 colony forming units (CFU/mL), and then diluted 1:200 in MHB, to give a final bacterial suspension of 5·10^5 CFU/mL, as described by Wiegand et al.. […] For MIC determination, all peptides were measured in triplicates using the protocol described by Wiegand et al. for “antimicrobial peptides that require the presence of acetic acid/BSA”. In brief, 20 µL peptide solution and gentamycin solution was transferred to column 1 of 96-well plates. Next, 10 µL 0.2% BSA; 0.01% acetic acid MHB media was transferred to column 2–11. Subsequently, peptides were serially diluted two-fold in the MIC plate and 90 µL bacterial suspension was transferred to all wells in column 1–11. Next, 100 µL bacterial suspension was transferred to column 12 D–F (growth control) and 100 µL media to column 12 A–C (sterility control). After an overnight incubation at 37 °C of the MIC plates, MIC values were determined as the lowest concentration at which there was no visible bacterial growth. For the inoculum control, 10 µL of solution from a positive-growth control well from each bacterial strain was dissolved in 990 µL phosphate-buffered saline (PBS) (1:100 dilution) in an Eppendorf tube. This solution was vortexed and 100 µL transferred to another Eppendorf tube containing 900 µL PBS (1:10 dilution) and vortexed. Then, 100 µL of each dilution was spread onto the MHB media plates, in triplicates, to achieve a CFU dilution of 1:1000 and 1:10,000, respectively. The plates were incubated overnight at 37 °C. The colonies were counted and 50 colonies were expected on the 1:10,000 plates and 500 on the 1:1000 plates.

[2] = tested on: E. coli ATCC 29522; type: cell-based; conditions: for Minimum inhibitory concentration EC: ATCC 29522
Procedure: as §1

[3] = tested on: red blood cells; conditions: at 150 µM peptide; 0.5% v/v RBC in PBS, 1 h 37 °C, absorbance 414 nm, normalized to melittin (100%) and PBS (0%)
Procedure: A total of 150 µL of 5 µM melittin was added to the positive control wells 1-6H of a V-shaped 96-well polypropylene plate and left overnight. The melittin solution was removed and the positive control wells were washed 3 times with 150 µL PBS. Afterwards, a 2.5 µM melittin solution was added to the positive control wells. For the assay, 0-negative blood in EDTA was used. Blood was washed by mixing 3 mL of PBS with 1 mL of whole blood, and centrifuged for 8 min at 3000 rpm. The supernatant was discarded and 4 mL of PBS added, mixed gently, and centrifuged. This wash cycle was repeated but the last centrifuge velocity was raised to 4000 rpm. Next, 40 µL red blood cells (RBC) was suspended in 8 mL of PBS to achieve an RBC suspension of 0.5% volume/volume (v/v). Peptide solutions were prepared at 600 µM, two times the highest concentration. A total of 150 µL peptide solution was transferred to row A. Next, 75 µL PBS was transferred to wells B1 to G12, as well as H7-12 (negative control), and the peptides were serially diluted two-fold. Then, 75 µL RBC suspension was added to all wells and the plate was covered with a Microseal® film and incubated for 1 h at 37 °C. Next, the plate was centrifuged for 10 min at 4000 rpm. Subsequently, 60 µL supernatant was transferred into the corresponding wells of a clear, polystyrene, flat-bottomed 96-well ELISA plate. The absorbance was read at λ = 414 nm with a VersaMaxTM Tunable Microplate Reader and the data were evaluated on Softmax® Pro. The results were normalized with respect to the average positive (100%) and negative (0%) controls, as described previously [43].

[4] = tested on: S. aureus ATCC 29213; assay: Time-kill kinetics; type: cell-based
Procedure: (§2) The killing kinetics of compound 11 (Figure 1A–D) were performed in two types of experiments on approximately 5 × 10^5 (exponential phase) and 5 × 10^7 (late exponential phase) colony forming units (CFU). […] Colistin and chloramphenicol was used as control antibiotics against P. aeruginosa and S. aureus, respectively. Chloramphenicol was chosen against S. aureus because initial experiments indicated 11 to be bacteriostatic. Time-kill experiments were performed on balanced exponentially growing cultures of S. aureus ATCC 29213 or P. aeruginosa ATCC 27853. We used balanced cultures, as described in Oddo et al.. In brief, overnight cultures were prepared in MHB broth at 37 °C, with shaking. Overnight cultures, were back diluted and grown exponentially for no less than 8–10 generations, before experimentation. When experiments were done at OD600 = 0.0005 ~5 × 10^5, the cultures were back diluted into fresh MHB, heated to 37 °C from an exponentially growing culture. In the late exponential phase, cultures were simply kept in the exponential phase, until OD600 = 0.1, before experimentation.

[5] = tested on: P. aeruginosa ATCC 27853; assay: Time-kill kinetics; type: cell-based; conditions: for kind of activity in time-kill experiments: P. aeruginosa; for effect on CFU: P. aeruginosa late exponential phase (OD600 ~0.1)
Procedure: as §2

[6] = tested on: S. aureus ATCC 29213; type: cell-based
Procedure: as §1

[7] = tested on: P. aeruginosa ATCC 27853; type: cell-based
Procedure: as §1

[8] = RP-HPLC retention time as indicator of hydrophobicity/amphipathicity; type: physicochemical; conditions: chromatographic, Waters Symmetry C18 4.6 × 250 mm, used as measure of hydrophobicity/amphipathicity (Table S1)
Procedure: Cleavage was performed on half or all of the resin with a TFA:H2O:TIS (95:2.5:2.5) solution for 2 h. The cleavage solution was collected and concentrated with a gentle stream of N2, down to about 300 µL. The peptide was precipitated and washed with 4 mL cold (−20 °C) diethyl ether, 3 times. The residual ether was left overnight to evaporate. Next, the crude product was dissolved in 90% water and 10% ACN and freeze-dried, ready for analysis and purification. Peptides were identified using Matrix Assisted Laser Desorption Ionization time of flight mass spectroscopy (MALDI–ToF MS). To this end, 1 µL peptide solution and 1 µL α-cyano4-hydroxycinnamic acid matrix (10 mg/ mL in ACN:H2O:TFA, 50:47.5:2.5) were spotted onto a target plate, followed by detection using a MicroflexTM. FlexControl software was used to obtain the spectra and the data were processed using flexAnalysis [Bruker Daltonik GmbH]. RP–HPLC was used to assess peptide purity. The system consisted of a WatersTM In-Line Degasser AF, a WatersTM 600 pump, a WatersTM 2996 Photodiode Array Detector, and a WatersTM Symmetry C18, 4.6 × 250 mm, […] column. The data were processed using Empower3 software. Purity was ≥95% for all tested peptide. Peptide purification was done by dissolving the peptides in minimal […], and 300–500 µL was injected into the HPLC system to achieve separation.

[9] = tested on: S. aureus, P. aeruginosa, E. coli, A. baumannii; assay: Minimum inhibitory concentration, statements over several strains; type: cell-based; conditions: MIC against S. aureus and P. aeruginosa
Procedure: Bacterial strains (E. coli ATCC 29522, S. aureus ATCC 29213, A. baumannii ATCC 19606, and P. aeruginosa ATCC 27853) were grown overnight on LB agar plates at 37 °C. Overnight cultures were prepared by inoculation of two to three colonies in 10 mL non-cation adjusted Mueller–Hinton broth (MHB) media (BD BBLTM Beef extract powder, BD BactoTMCasamino acids, and DIFCO soluble starch). Bacterial inoculum for MIC testing was prepared as balanced cultures, as previously described. The bacterial suspension was adjusted using MHB to an OD600 of 0.1, approximately 1·10^8 colony forming units (CFU/mL), and then diluted 1:200 in MHB, to give a final bacterial suspension of 5·10^5 CFU/mL, as described by Wiegand et al.. […] For MIC determination, all peptides were measured in triplicates using the protocol described by Wiegand et al. for “antimicrobial peptides that require the presence of acetic acid/BSA”. In brief, 20 µL peptide solution and gentamycin solution was transferred to column 1 of 96-well plates. Next, 10 µL 0.2% BSA; 0.01% acetic acid MHB media was transferred to column 2–11. Subsequently, peptides were serially diluted two-fold in the MIC plate and 90 µL bacterial suspension was transferred to all wells in column 1–11. […] The colonies were counted and 50 colonies were expected on the 1:10,000 plates and 500 on the 1:1000 plates.

[10] = P. aeruginosa late exponential phase, 5× MIC

Molecule | activity in MIC assays ([1]; A. baumannii) | Minimum inhibitory concentration AB [1] [µg/mL] | Minimum inhibitory concentration EC [2] [µg/mL] | activity in MIC assays ([2]; E. coli) | percent hemolytic activity against red blood cells (%H) [3] [%] | reduction in CFU ([4]; S. aureus exponential phase, 1× MIC) [log] | reduction in CFU ([4]; S. aureus exponential phase, 3× MIC and 5× MIC) [log] | reduction in CFU ([4]; S. aureus late exponential phase, 5× MIC, regrowth after 24 h) [log] | kind of activity in time-kill experiments [5] | reduction in viable bacterial counts ([5]; P. aeruginosa exponential phase (~5 × 10^5 CFU), 1× MIC) | reduction in CFU ([5]; P. aeruginosa exponential phase, 3–5× MIC, within the first hour) [log] | effect on CFU ([5]; 1× MIC) | reduction in CFU ([5]; P. aeruginosa late exponential phase, 3× MIC) [log] | reduction in CFU [5, 10] [log] | Minimum inhibitory concentration SA [6] [µg/mL] | Minimum inhibitory concentration PA [7] [µg/mL] | HPLC retention time (RT) [8] [min] | increase in activity compared to BSI-9 [9] [fold]
N=C(N)NCCC[C@@H]1NC(=O)[C@H](Cc2ccc3ccccc3c2)NC(=O)[C@H](CCN)NC(=O)[C@H](CC(N)=O)NC(=O)[C@H](CCN)NC(=O)[C@H](Cc2ccc3ccccc3c2)NC(=O)COCCOCCNC(=O)[C@H](Cc2ccc(-c3ccccc3)cc2)NC(=O)[C@H](CCN)NC1=O [compound 11] (cyclo([Dab][2Nal]R[Dab][Bip][AEEA][2Nal][Dab]N)) | no activity | 32 (≈ 24 µM) | 32 (≈ 24 µM) | no activity | 36 | 2 | > 3 | 3 | bactericidal | ~ 2 log | > 3 | virtually no effect | 1 | 3 | – | – | – | –
N=C(N)NCCC[C@@H]1NC(=O)[C@H](Cc2ccc3ccccc3c2)NC(=O)COCCOCCNC(=O)[C@H](Cc2ccc(-c3ccccc3)cc2)NC(=O)[C@H](CCN)NC(=O)[C@H](CCN)NC(=O)[C@H](Cc2ccc3ccccc3c2)NC(=O)[C@H](CCN)NC(=O)[C@H](CC(N)=O)NC1=O [compound 13] (cyclo([Dab][2Nal][Dab][Dab][Bip][AEEA][2Nal]RN)) | – | 64 (≈ 48 µM) | 32 (≈ 24 µM) | – | 80 | – | – | – | – | – | – | – | – | – | 1 (≈ 0.75 µM) | 4 (≈ 3 µM) | 17.9 | –
NCC[C@@H]1NC(=O)[C@H](Cc2ccc3ccccc3c2)NC(=O)COCCOCCNC(=O)[C@H](Cc2ccc(-c3ccccc3)cc2)NC(=O)[C@H](CCN)NC(=O)[C@H](CCN)NC(=O)[C@H](Cc2ccc3ccccc3c2)NC(=O)[C@H](CCN)NC(=O)[C@H](CC(N)=O)NC1=O [compound 9] (cyclo([Dab][2Nal][Dab][Dab][Bip][AEEA][2Nal][Dab]N)) | – | 32 (≈ 25 µM) | >64 | – | 76 | – | – | – | – | – | – | – | – | – | 8 (≈ 6.26 µM) | 4 (≈ 3.13 µM) | 17.8 | 8
colistin [reference compound] | – | – | – | – | – | – | – | – | bactericidal | – | – | virtually no effect | – | 1 | – | – | – | –
N=C(N)NCCC[C@@H]1NC(=O)[C@H](CC(N)=O)NC(=O)[C@H](CCN)NC(=O)[C@H](Cc2ccc3ccccc3c2)NC(=O)COCCOCCNC(=O)[C@H](Cc2ccc(-c3ccccc3)cc2)NC(=O)[C@H](CCN)NC(=O)[C@H](CCN)NC(=O)[C@H](Cc2ccc3ccccc3c2)NC1=O [compound 10] (cyclo(R[2Nal][Dab][Dab][Bip][AEEA][2Nal][Dab]N)) | – | 32 (≈ 24 µM) | 32 (≈ 24 µM) | – | 66 | – | – | – | – | – | – | – | – | – | 2 (≈ 1.5 µM) | 2 (≈ 1.5 µM) | – | –
NCCCC[C@@H]1NC(=O)[C@H](Cc2ccccc2)NC(=O)COCCOCCNC(=O)[C@H](Cc2ccccc2)NC(=O)[C@H](CCCCN)NC(=O)[C@H](CCCCN)NC(=O)[C@H](Cc2ccccc2)NC(=O)[C@H](CCCCN)NC(=O)[C@H](CC(N)=O)NC1=O [compound 8] (cyclo(KFKKF[AEEA]FKN)) | – | >64 | >64 | – | 3 | – | – | – | – | – | – | – | – | – | >64 | >64 | – | –
N=C(N)NCCC[C@@H]1NC(=O)[C@H](Cc2ccc3ccccc3c2)NC(=O)COCCOCCNC(=O)[C@H](Cc2ccc(-c3ccccc3)cc2)NC(=O)[C@H](CCCNC(=N)N)NC(=O)[C@H](CCCNC(=N)N)NC(=O)[C@H](Cc2ccc3ccccc3c2)NC(=O)[C@H](CCCNC(=N)N)NC(=O)[C@H](CC(N)=O)NC1=O [compound 14] (cyclo(R[2Nal]RR[Bip][AEEA][2Nal]RN)) | – | >64 | >64 | – | 68 | – | – | – | – | – | – | – | – | – | 32 (≈ 21.3 µM) | 32 (≈ 21.3 µM) | – | –
